# From ChEMBL document CHEMBL1201861, “Genomics of Drug Sensitity in Cancer screening data, Wellcome Trust Sanger Institute”
# System: DMS-273
# Assay: cells
# Assay type: functional, cell-based
# Details: Homo sapiens
# Description: SANGER: Inhibition of human DMS-273 cell growth in a cell viability assay.
row,SMILES,IC50 [nM]
1,CN(NC(=O)CC(=O)NN(C)C(=S)c1ccccc1)C(=S)c1ccccc1 [ELESCLOMOL],7.06

# System: FTC-133
# Assay: cells
# Assay type: functional, cell-based
# Details: Homo sapiens
row,SMILES,IC50 [nM]
1,CN(NC(=O)CC(=O)NN(C)C(=S)c1ccccc1)C(=S)c1ccccc1 [ELESCLOMOL],27

# System: G-402
# Assay: cells
# Assay type: functional, cell-based
# Details: Homo sapiens
# Description: SANGER: Inhibition of human G-402 cell growth in a cell viability assay.
row,SMILES,IC50 [nM]
1,CN(NC(=O)CC(=O)NN(C)C(=S)c1ccccc1)C(=S)c1ccccc1 [ELESCLOMOL],16.2

# System: GCT;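 note: GCT cell line proliferation inhibition, read out with a cell viability assay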
# Assay: cells
# Assay type: functional, cell-based
# Details: Homo sapiens
# Description: SANGER: Inhibition of human GCT cell growth in a cell viability assay.
row,SMILES,IC50 [nM]
1,CN(NC(=O)CC(=O)NN(C)C(=S)c1ccccc1)C(=S)c1ccccc1 [ELESCLOMOL],23.4

# System: HCC1937;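 note: growth inhibition measured with a cell viability read-out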
# Assay: cells
# Assay type: functional, cell-based
# Details: Homo sapiens
# Description: SANGER: Inhibition of human HCC1937 cell growth in a cell viability assay.
row,SMILES,IC50 [nM]
1,CN(NC(=O)CC(=O)NN(C)C(=S)c1ccccc1)C(=S)c1ccccc1 [ELESCLOMOL],35.2

# System: HCC 2998;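 note: growth inhibition of human HCC2998 cells, measured with a cell viability read-out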
# Assay: cells
# Assay type: functional, cell-based
# Details: Homo sapiens
# Description: SANGER: Inhibition of human HCC2998 cell growth in a cell viability assay.
row,SMILES,IC50 [nM]
1,CN(NC(=O)CC(=O)NN(C)C(=S)c1ccccc1)C(=S)c1ccccc1 [ELESCLOMOL],111

# System: HCT-116
# Assay: cells
# Assay type: functional, cell-based
# Details: Homo sapiens
# Description: SANGER: Inhibition of human HCT-116 cell growth in a cell viability assay.
row,SMILES,IC50 [nM]
1,CN(NC(=O)CC(=O)NN(C)C(=S)c1ccccc1)C(=S)c1ccccc1 [ELESCLOMOL],40

# System: HSC-2;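 note: growth inhibition of human HSC-2 cells, read out by a cell viability assay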
# Assay: cells
# Assay type: functional, cell-based
# Details: Homo sapiens
# Description: SANGER: Inhibition of human HSC-2 cell growth in a cell viability assay.
row,SMILES,IC50 [nM]
1,CN(NC(=O)CC(=O)NN(C)C(=S)c1ccccc1)C(=S)c1ccccc1 [ELESCLOMOL],107

# System: HT-29;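 note: growth inhibition of human HT-29 cells, read out by a cell viability assay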
# Assay: cells
# Assay type: functional, cell-based
# Details: Homo sapiens
# Description: SANGER: Inhibition of human HT-29 cell growth in a cell viability assay.
row,SMILES,IC50 [nM]
1,CN(NC(=O)CC(=O)NN(C)C(=S)c1ccccc1)C(=S)c1ccccc1 [ELESCLOMOL],> 200

# System: HuTu80;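 note: growth inhibition of HuTu80 human cells, determined with a cell viability readout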
# Assay: cells
# Assay type: functional, cell-based, Homo sapiens, HUTU-80
# Details: Homo sapiens, HuTu80
# Description: SANGER: Inhibition of human HUTU-80 cell growth in a cell viability assay.
row,SMILES,IC50 [nM]
1,CN(NC(=O)CC(=O)NN(C)C(=S)c1ccccc1)C(=S)c1ccccc1 [ELESCLOMOL],0.791

# System: JEG-3;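 note: growth inhibition of human JEG-3 cells, read out with a cell viability assay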
# Assay: cells
# Assay type: functional, cell-based
# Details: Homo sapiens
# Description: SANGER: Inhibition of human JEG-3 cell growth in a cell viability assay.
row,SMILES,IC50 [nM]
1,CN(NC(=O)CC(=O)NN(C)C(=S)c1ccccc1)C(=S)c1ccccc1 [ELESCLOMOL],8.84

# System: KMOE-2;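 note: growth inhibition of human KMOE-2 cells, read out with a cell viability assay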
# Assay: cells
# Assay type: functional, cell-based, Homo sapiens
# Details: Homo sapiens, KMOE-2
# Description: SANGER: Inhibition of human KMOE-2 cell growth in a cell viability assay.
row,SMILES,IC50 [nM]
1,CN(NC(=O)CC(=O)NN(C)C(=S)c1ccccc1)C(=S)c1ccccc1 [ELESCLOMOL],145

# System: KYSE-140;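 note: cell viability assay measuring growth inhibition in human KYSE-140 cells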
# Assay: cells
# Assay type: functional, cell-based
# Details: Homo sapiens
# Description: SANGER: Inhibition of human KYSE-140 cell growth in a cell viability assay.
row,SMILES,IC50 [nM]
1,CN(NC(=O)CC(=O)NN(C)C(=S)c1ccccc1)C(=S)c1ccccc1 [ELESCLOMOL],21

# System: KYSE-150 cell line;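 note: growth inhibition of human KYSE-150 cells, read out with a cell viability assay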
# Assay: cells
# Assay type: functional, cell-based
# Details: Homo sapiens
# Description: SANGER: Inhibition of human KYSE-150 cell growth in a cell viability assay.
row,SMILES,IC50 [nM]
1,CN(NC(=O)CC(=O)NN(C)C(=S)c1ccccc1)C(=S)c1ccccc1 [ELESCLOMOL],95

# System: KYSE-510;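 note: cell viability readout used to measure how strongly growth of the cell line is suppressed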
# Assay: cells
# Assay type: functional, cell-based
# Details: Homo sapiens
# Description: SANGER: Inhibition of human KYSE-510 cell growth in a cell viability assay.
row,SMILES,IC50 [nM]
1,CN(NC(=O)CC(=O)NN(C)C(=S)c1ccccc1)C(=S)c1ccccc1 [ELESCLOMOL],110

# System: LB373-MEL-D;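 note: growth inhibition of the cell line, read out in a cell viability assay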
# Assay: cells
# Assay type: functional, cell-based, Homo sapiens
# Details: Homo sapiens, LB373-MEL-D
# Description: SANGER: Inhibition of human LB373-MEL-D cell growth in a cell viability assay.
row,SMILES,IC50 [nM]
1,CN(NC(=O)CC(=O)NN(C)C(=S)c1ccccc1)C(=S)c1ccccc1 [ELESCLOMOL],14.7

# System: LN-405
# Assay: cells
# Assay type: functional, cell-based
# Details: Homo sapiens
# Description: SANGER: Inhibition of human LN-405 cell growth in a cell viability assay.
row,SMILES,IC50 [nM]
1,CN(NC(=O)CC(=O)NN(C)C(=S)c1ccccc1)C(=S)c1ccccc1 [ELESCLOMOL],87.8

# System: ME-180;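 note: cell viability assay measuring growth inhibition of ME-180 cells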
# Assay: cells
# Assay type: functional, cell-based
# Details: Homo sapiens
# Description: SANGER: Inhibition of human ME-180 cell growth in a cell viability assay.
row,SMILES,IC50 [nM]
1,CN(NC(=O)CC(=O)NN(C)C(=S)c1ccccc1)C(=S)c1ccccc1 [ELESCLOMOL],16.2

# System: MKN-7;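 note: growth inhibition of MKN-7 cells, read out with a cell viability assay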
# Assay: cells
# Assay type: functional, cell-based
# Details: Homo sapiens
# Description: SANGER: Inhibition of human MKN7 cell growth in a cell viability assay.
row,SMILES,IC50 [nM]
1,CN(NC(=O)CC(=O)NN(C)C(=S)c1ccccc1)C(=S)c1ccccc1 [ELESCLOMOL],61

# System: NCI-H1651;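 note: Read-out is a cell viability assay, with IC50 expressing inhibition of NCI-H1651 cell growth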
# Assay: cells
# Assay type: functional, cell-based
# Details: Homo sapiens
# Description: SANGER: Inhibition of human NCI-H1651 cell growth in a cell viability assay.
row,SMILES,IC50 [nM]
1,CN(NC(=O)CC(=O)NN(C)C(=S)c1ccccc1)C(=S)c1ccccc1 [ELESCLOMOL],82.9

# System: NCI-H1793;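 note: cell growth inhibition, read out by a cell viability assay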
# Assay: cells
# Assay type: functional, cell-based
# Details: Homo sapiens
# Description: SANGER: Inhibition of human NCI-H1793 cell growth in a cell viability assay.
row,SMILES,IC50 [nM]
1,CN(NC(=O)CC(=O)NN(C)C(=S)c1ccccc1)C(=S)c1ccccc1 [ELESCLOMOL],> 200

# System: NCI-H2030;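 note: growth inhibition of human NCI-H2030 cells, read out by a cell viability assay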
# Assay: cells
# Assay type: functional, cell-based
# Details: Homo sapiens
# Description: SANGER: Inhibition of human NCI-H2030 cell growth in a cell viability assay.
row,SMILES,IC50 [nM]
1,CN(NC(=O)CC(=O)NN(C)C(=S)c1ccccc1)C(=S)c1ccccc1 [ELESCLOMOL],26.4

# System: NCI-H2122;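 note: growth inhibition of the cells, read out with a cell viability assay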
# Assay: cells
# Assay type: functional, cell-based
# Details: Homo sapiens
# Description: SANGER: Inhibition of human NCI-H2122 cell growth in a cell viability assay.
row,SMILES,IC50 [nM]
1,CN(NC(=O)CC(=O)NN(C)C(=S)c1ccccc1)C(=S)c1ccccc1 [ELESCLOMOL],130

# System: NCI-H2452;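 note: growth inhibition of NCI-H2452 cells, read out with a cell viability assay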
# Assay: cells
# Assay type: functional, cell-based
# Details: Homo sapiens
# Description: SANGER: Inhibition of human NCI-H2452 cell growth in a cell viability assay.
row,SMILES,IC50 [nM]
1,CN(NC(=O)CC(=O)NN(C)C(=S)c1ccccc1)C(=S)c1ccccc1 [ELESCLOMOL],21.7

# System: NCI-H596;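 note: growth inhibition of NCI-H596 cells, read out with a cell viability assay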
# Assay: cells
# Assay type: functional, cell-based
# Details: Homo sapiens
# Description: SANGER: Inhibition of human NCI-H596 cell growth in a cell viability assay.
row,SMILES,IC50 [nM]
1,CN(NC(=O)CC(=O)NN(C)C(=S)c1ccccc1)C(=S)c1ccccc1 [ELESCLOMOL],44.8

# System: NCI-H661;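 note: cell viability assay read-out, IC50 being the concentration that inhibits growth of the cells by half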
# Assay: cells
# Assay type: functional, cell-based
# Details: Homo sapiens
# Description: SANGER: Inhibition of human NCI-H661 cell growth in a cell viability assay.
row,SMILES,IC50 [nM]
1,CN(NC(=O)CC(=O)NN(C)C(=S)c1ccccc1)C(=S)c1ccccc1 [ELESCLOMOL],12.5

# System: PA-1;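 note: IC50 for suppression of PA-1 cell proliferation, determined with a cell viability read-out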
# Assay: cells
# Assay type: functional, cell-based
# Details: Homo sapiens
# Description: SANGER: Inhibition of human PA-1 cell growth in a cell viability assay.
row,SMILES,IC50 [nM]
1,CN(NC(=O)CC(=O)NN(C)C(=S)c1ccccc1)C(=S)c1ccccc1 [ELESCLOMOL],8.84

# System: SK-HEP1;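 note: cell viability readout used to quantify reduction in proliferation of human SK-HEP-1 cells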
# Assay: cells
# Assay type: functional, cell-based, SK-HEP-1
# Details: Homo sapiens
# Description: SANGER: Inhibition of human SK-HEP-1 cell growth in a cell viability assay.
row,SMILES,IC50 [nM]
1,CN(NC(=O)CC(=O)NN(C)C(=S)c1ccccc1)C(=S)c1ccccc1 [ELESCLOMOL],> 200

# System: SK-MEL-24;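 note: growth inhibition read out by a cell viability assay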
# Assay: cells
# Assay type: functional, cell-based
# Details: Homo sapiens
# Description: SANGER: Inhibition of human SK-MEL-24 cell growth in a cell viability assay.
row,SMILES,IC50 [nM]
1,CN(NC(=O)CC(=O)NN(C)C(=S)c1ccccc1)C(=S)c1ccccc1 [ELESCLOMOL],> 200

# System: SW13;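 note: IC50 is inhibition of SW13 cell growth, read out with a cell viability assay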
# Assay: cells
# Assay type: functional, cell-based
# Details: Homo sapiens
# Description: SANGER: Inhibition of human SW13 cell growth in a cell viability assay.
row,SMILES,IC50 [nM]
1,CN(NC(=O)CC(=O)NN(C)C(=S)c1ccccc1)C(=S)c1ccccc1 [ELESCLOMOL],7.69

# System: SW1573;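 note: growth inhibition of SW1573 cells, read out with a cell viability assay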
# Assay: cells
# Assay type: functional, cell-based
# Details: Homo sapiens
# Description: SANGER: Inhibition of human SW1573 cell growth in a cell viability assay.
row,SMILES,IC50 [nM]
1,CN(NC(=O)CC(=O)NN(C)C(=S)c1ccccc1)C(=S)c1ccccc1 [ELESCLOMOL],10.7

# System: SW1783;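 note: cell growth inhibition measured with a viability assay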
# Assay: cells
# Assay type: functional, cell-based
# Details: Homo sapiens
# Description: SANGER: Inhibition of human SW1783 cell growth in a cell viability assay.
row,SMILES,IC50 [nM]
1,CN(NC(=O)CC(=O)NN(C)C(=S)c1ccccc1)C(=S)c1ccccc1 [ELESCLOMOL],139

# System: 786-0
# Assay: cells
# Assay type: functional, cell-based
# Details: Homo sapiens
# Description: SANGER: Inhibition of human 786-0 cell growth in a cell viability assay.
row,SMILES,IC50 [nM]
1,CN(NC(=O)CC(=O)NN(C)C(=S)c1ccccc1)C(=S)c1ccccc1 [ELESCLOMOL],12.9

# System: A2780;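 note: growth inhibition of A2780 cells, read out with a cell viability assay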
# Assay: cells
# Assay type: functional, cell-based
# Details: Homo sapiens
# Description: SANGER: Inhibition of human A2780 cell growth in a cell viability assay.
row,SMILES,IC50 [nM]
1,CN(NC(=O)CC(=O)NN(C)C(=S)c1ccccc1)C(=S)c1ccccc1 [ELESCLOMOL],0.594

# System: A-375;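 note: growth inhibition of A375 cells, read out with a cell viability assay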
# Assay: cells
# Assay type: functional, cell-based
# Details: Homo sapiens
# Description: SANGER: Inhibition of human A375 cell growth in a cell viability assay.
row,SMILES,IC50 [nM]
1,CN(NC(=O)CC(=O)NN(C)C(=S)c1ccccc1)C(=S)c1ccccc1 [ELESCLOMOL],4.14

# System: A673;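 note: growth inhibition of human A673 cells, read out through a cell viability assay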
# Assay: cells
# Assay type: functional, cell-based
# Details: Homo sapiens
# Description: SANGER: Inhibition of human A673 cell growth in a cell viability assay.
row,SMILES,IC50 [nM]
1,CN(NC(=O)CC(=O)NN(C)C(=S)c1ccccc1)C(=S)c1ccccc1 [ELESCLOMOL],11.6

# System: ABC-1;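 note: growth inhibition of human ABC-1 cells, read out by a cell viability assay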
# Assay: cells
# Assay type: functional, cell-based
# Details: Homo sapiens
# Description: SANGER: Inhibition of human ABC-1 cell growth in a cell viability assay.
row,SMILES,IC50 [nM]
1,CN(NC(=O)CC(=O)NN(C)C(=S)c1ccccc1)C(=S)c1ccccc1 [ELESCLOMOL],0.365

# System: BPH-1;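 note: cell viability assay measuring growth inhibition of human BPH-1 cells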
# Assay: cells
# Assay type: functional, cell-based
# Details: Homo sapiens
# Description: SANGER: Inhibition of human BPH-1 cell growth in a cell viability assay.
row,SMILES,IC50 [nM]
1,CN(NC(=O)CC(=O)NN(C)C(=S)c1ccccc1)C(=S)c1ccccc1 [ELESCLOMOL],83.1

# System: BXPC-3;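 note: growth inhibition of human BxPC-3 cells, read out by a cell viability assay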
# Assay: cells
# Assay type: functional, cell-based
# Details: Homo sapiens
# Description: SANGER: Inhibition of human BxPC-3 cell growth in a cell viability assay.
row,SMILES,IC50 [nM]
1,CN(NC(=O)CC(=O)NN(C)C(=S)c1ccccc1)C(=S)c1ccccc1 [ELESCLOMOL],> 200

# System: C-33-A;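 note: cell viability assay measuring growth inhibition of C-33-A cells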
# Assay: cells
# Assay type: functional, cell-based
# Details: Homo sapiens
# Description: SANGER: Inhibition of human C-33-A cell growth in a cell viability assay.
row,SMILES,IC50 [nM]
1,CN(NC(=O)CC(=O)NN(C)C(=S)c1ccccc1)C(=S)c1ccccc1 [ELESCLOMOL],7.58

# System: CAL-33;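 note: growth inhibition of CAL-33 cells, read out with a cell viability assay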
# Assay: cells
# Assay type: functional, cell-based
# Details: Homo sapiens
# Description: SANGER: Inhibition of human CAL-33 cell growth in a cell viability assay.
row,SMILES,IC50 [nM]
1,CN(NC(=O)CC(=O)NN(C)C(=S)c1ccccc1)C(=S)c1ccccc1 [ELESCLOMOL],22.2

# System: CAL-51;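 note: human CAL-51 cell line, growth inhibition read out via a cell viability assay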
# Assay: cells
# Assay type: functional, cell-based
# Details: Homo sapiens
# Description: SANGER: Inhibition of human CAL-51 cell growth in a cell viability assay.
row,SMILES,IC50 [nM]
1,CN(NC(=O)CC(=O)NN(C)C(=S)c1ccccc1)C(=S)c1ccccc1 [ELESCLOMOL],< 0.781

# System: CAL-54;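 note: growth inhibition of CAL-54 cells, read out by a viability measurement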
# Assay: cells
# Assay type: functional, cell-based
# Details: Homo sapiens
# Description: SANGER: Inhibition of human CAL-54 cell growth in a cell viability assay.
row,SMILES,IC50 [nM]
1,CN(NC(=O)CC(=O)NN(C)C(=S)c1ccccc1)C(=S)c1ccccc1 [ELESCLOMOL],> 200

# System: CAL-85-1;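 note: growth inhibition of human CAL-85-1 cells, read out with a cell viability assay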
# Assay: cells
# Assay type: functional, cell-based
# Details: Homo sapiens
# Description: SANGER: Inhibition of human CAL-85-1 cell growth in a cell viability assay.
row,SMILES,IC50 [nM]
1,CN(NC(=O)CC(=O)NN(C)C(=S)c1ccccc1)C(=S)c1ccccc1 [ELESCLOMOL],72.7

# System: UMUC3;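 note: growth inhibition of human UM-UC-3 cells, read out with a cell viability assay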
# Assay: cells
# Assay type: functional, cell-based
# Details: Homo sapiens
# Description: SANGER: Inhibition of human UM-UC-3 cell growth in a cell viability assay.
row,SMILES,IC50 [nM]
1,CN(NC(=O)CC(=O)NN(C)C(=S)c1ccccc1)C(=S)c1ccccc1 [ELESCLOMOL],7.06

# System: VM-CUB-1;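 note: cell viability assay measuring growth inhibition of the human VM-CUB-1 cell line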
# Assay: cells
# Assay type: functional, cell-based
# Details: Homo sapiens
# Description: SANGER: Inhibition of human VM-CUB-1 cell growth in a cell viability assay.
row,SMILES,IC50 [nM]
1,CN(NC(=O)CC(=O)NN(C)C(=S)c1ccccc1)C(=S)c1ccccc1 [ELESCLOMOL],12.7

# System: YKG-1;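 note: cell growth inhibition, read out with a viability assay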
# Assay: cells
# Assay type: functional, cell-based
# Details: Homo sapiens
# Description: SANGER: Inhibition of human YKG-1 cell growth in a cell viability assay.
row,SMILES,IC50 [nM]
1,CN(NC(=O)CC(=O)NN(C)C(=S)c1ccccc1)C(=S)c1ccccc1 [ELESCLOMOL],12.6
